Results reported in patent publication US8163691B2, “Compositions and methods for identifying agents which modulate PTEN function and PI-3 kinase pathways” (Indiana University Research & Research Corporation, priority 2000, dated 2012).
pIC50: −log10 of the molar value. Entries after “also recorded” stand apart in the source; their conditions may differ.

How the values were obtained:
U87MG cells [1] = experiment: Subcutaneous U87MG tumor growth in nude mice; type: in vivo, mouse; conditions: LY294002 100 mg/kg daily i.p.; control approximately 400 mm3
Description: LY294002 was administered at a dosage of 100 mg/kg delivered daily by intraperitoneal injection in a small volume of 100% DMSO for 2 weeks, beginning 2 days after tumor implantation. […] Control mice were injected with small volume ([…]) of 100% DMSO. Daily measurement of tumor volume was performed in 3 coordinates using calipers. To determine whether PI-3 kinase exerts control over angiogenesis or the growth of glial tumors in vivo the orthotopic brain tumor model described in Example I was utilized. To assess the effect of LY294002 on angiogenesis, we treated mice with LY294002 (100 mg/kg/dose×2 weeks) or DMSO as negative control. Tumor volumes were recorded daily (FIG. 15). On day 14 we stained cryostat sections from subcutaneous tumors for CD31 (PECAM). CD31 is an endothelial marker used to measure the microvessel density of these tumors. Microvessel density was assessed from multiple digitized images of CD31-stained tumor tissue at 100× magnification (3 fields were evaluated per tumor) and counted blindly for the number of CD31 positive microvessels per unit surface area as described (Weidner et al., (1991) N. Engl. J. Med. 324:1). […] Importantly, microvessel determinations were performed on day 7 after implantation to compare angiogenic activity of tumors of similar size. […]

U87MG cells [2] = experiment: Microvessel density (CD31 positive microvessels) in subcutaneous U87MG tumor tissue; type: in vivo, mouse; conditions: LY294002 100 mg/kg/dose x 2 weeks i.p.; controls (DMSO) 50±6
Description: Microvessel density (MVD) was determined for each brain tumor as described in Example I by CD31 staining, performed on cryostat sections (7 μm), fixed in acetone, blocked in 1% goat serum and stained with anti-CD31 antibody (Pharmingen, #01951D). Antibody staining was visualized with peroxidase-conjugated anti-mouse antibody and counter stained with hematoxylin. A negative control was performed on each tumor tissue stained with mouse IgG. Two sections from each tumor were scanned under low power magnification (40×) to identify areas of highest CD31 positive vessel density (Weidner et al. 1991), followed by digitization of 5 fields from this area. The digitized images representing one 100× field were counted for the number of CD31 positive vascular elements. Data was collected independently by two researchers in a blind study. The average number of microvessels per digitized 100× field was determined for 5 tumors per experimental group and analyzed by Student's t-test. […] Tumor volumes were recorded daily (FIG. 15). […] Microvessel density was assessed from multiple digitized images of CD31-stained tumor tissue at 100× magnification (3 fields were evaluated per tumor) and counted blindly for the number of CD31 positive microvessels per unit surface area as described (Weidner et al., (1991) N. Engl. J. Med. 324:1). […]

U87MG cells [3] = experiment: Orthotopic (intracranial) U87MG brain tumor model in nude mice; type: in vivo, mouse; conditions: examined on day 42; DMSO controls 4/5 by day 25
Description: To determine whether PTEN exerts control over angiogenesis and/or the growth of glial tumors, an orthotopic brain tumor model was developed in which PTEN-deficient tumor cells were genetically manipulated in vitro and then stereotactically injected into the frontal cerebral cortex of nude mice. The U87MG cell line employed in these studies is derived from a patient diagnosed with glioblastoma multiforme, a highly malignant and uniformly fatal brain tumor. This tumor and other human glioblastomas and glioblastoma cell lines contain a mutation in both PTEN alleles (U87MG cells have a homozygous mutation in PTEN resulting in a null genotype). We also examined the effect of LY294002 on tumor growth and incidence of brain tumor in a nude mouse model. In a previous study, in vivo activity of LY294002 against an ovarian carcinoma was observed. […] In other words, the carcinoma was not assessed in its natural milieu. Hu et al., Clin. Can. Res. 6:880). […] In control mice treated with DMSO, 4/5 had grossly visible and/or histologically confirmed brain tumors by H & E analysis by day 25 after implantation, whereas in 0/5 mice treated with LY294002 had grossly detectable or histologic evidence of intracranial tumor when examined on day 42.

[4] = Tolerability of treatment in tumor-bearing mice; type: in vivo, mouse; conditions: 100 mg/kg daily i.p. in 100% DMSO for 2 weeks
Description: LY294002 was administered at a dosage of 100 mg/kg delivered daily by intraperitoneal injection in a small volume of 100% DMSO for 2 weeks, beginning 2 days after tumor implantation. […] Control mice were injected with small volume ([…]) of 100% DMSO. Daily measurement of tumor volume was performed in 3 coordinates using calipers.

J774A.1 cells = experiment: Fcγ receptor mediated phagocytosis of IgG sensitized sRBCs by J774A.1 cells (phagocytic index); type: cell-based, mouse
Cbl = experiment: Tyrosine phosphorylation of Cbl after stimulation with sensitized sRBCs (Cbl IP, anti-phosphotyrosine immunoblot); type: cell-based, mouse
[5] = tested on: U87MG glioblastoma cells, null for PTEN; experiment: MTT viable cell assay, chemosensitivity of parental PTEN-null U87MG glioblastoma cells; type: cell-based, human
Description: (§1) MTT assays. Cells were seeded (6000/well) into a 96 well plate. Twenty-four hours later the growth medium was changed to 1% serum and other reagents were added as described. Treatments proceeded for 24-72 h. At each time point the MTT assay was performed. MTT (10 ul of a 5 mg/ml stock solution dissolved in RPMI medium) is added to each well of cultures 4 hours before quantitation of viable cell number by measuring absorbance in each well at 650 nm with a microplate reader (Molecular Devises,) Agents added to cell LY294002 alone or in combination with etoposide. In addition, comparison was made between U87MG cells null for PTEN and reconstituted with PTEN protein. The absorbance of each well was measured at […] with a microplate reader.

[6] = tested on: Glioblastoma cells engineered to stably express wild-type PTEN; experiment: MTT viable cell assay, chemosensitivity of glioblastoma cells stably expressing wild-type PTEN; type: cell-based, human
Description: as §1

O=c1cc(N2CCOCC2)oc2c(-c3ccccc3)cccc12 [LY294002]
tumor size at the time of microvessel analysis (U87MG cells [1]): approximately 35 mm3 | microvessel density (MVD), CD31 positive microvessels (U87MG cells [2]): 22±5 | mice with grossly detectable or histologic evidence of intracranial tumor (U87MG cells [3]): 0/5 | untoward effects in treated mice [4]: No untoward effects

Cc1ccc(-c2nn(C(C)(C)C)c3ncnc(N)c23)cc1 [PP1]
inhibition of phagocytosis of IgG coated sRBCs (phagocytic index) (J774A.1 cells; PP1 10 μM, 1 h pretreatment, target to effector ratio 100:1): completely abrogated phagocytosis; also recorded: blocks the phagocytosis significantly | dose dependence of inhibition of phagocytosis (J774A.1 cells; PP1 1, 5, 10 μM): dose dependent manner | inhibition of phagocytosis of sensitized sRBCs (J774A.1 cells; preincubation of the cells, concentration not given): inhibit this response | tyrosine phosphorylation of Cbl induced by sensitized sRBCs (Cbl; PP1 10 μM, stimulation with sRBCs 5 minutes): inhibited significantly; also recorded: abrogated | dose dependence of the effect on Cbl tyrosine phosphorylation (Cbl; data not shown): dose dependent | basal tyrosine phosphorylation levels of Cbl (Cbl; resting cells): suppressed the basal tyrosine phosphorylation levels of Cbl

COc1cc([C@@H]2c3cc4c(cc3[C@@H](O[C@@H]3O[C@@H]5CO[C@@H](C)O[C@H]5[C@H](O)[C@H]3O)[C@H]3COC(=O)[C@H]23)OCO4)cc(OC)c1O [etoposide]
pIC50 ([5]; Homo sapiens, U-87 MG, U87MG null for PTEN, or cells stably expressing catalytically inactive PTEN (R130M cells), read-out: etoposide required to achieve a 50% cell kill): 5.33 | cytotoxic activity of etoposide alone ([5]; etoposide 1 uM): minimal cytotoxic activity | increase in sensitivity to etoposide, wild-type PTEN versus PTEN-null cells ([6]; 0.047 μM versus 4.7 μM): 100 fold | pIC50 ([6]; Homo sapiens, cells stably expressing wild-type PTEN, read-out: etoposide required to achieve a 50% cell kill): 7.33
